Patent US20250064941A1, “SIGLEC LIGANDS, CONJUGATES, AND METHODS OF USE THEREOF” (Osprey Biopharmaceuticals, Inc., priority 2023, published 2025)

What was measured:
[1] = molecular target: T1, human Siglec-2/CD22 protein (Homo sapiens, UniProt P20273); assay: SPR binding affinity to human CD22; settings: steady-state analysis
T1 construct: purchased Acro Biosystems SI2-H82E3
T1 sequence (P20273 20-847): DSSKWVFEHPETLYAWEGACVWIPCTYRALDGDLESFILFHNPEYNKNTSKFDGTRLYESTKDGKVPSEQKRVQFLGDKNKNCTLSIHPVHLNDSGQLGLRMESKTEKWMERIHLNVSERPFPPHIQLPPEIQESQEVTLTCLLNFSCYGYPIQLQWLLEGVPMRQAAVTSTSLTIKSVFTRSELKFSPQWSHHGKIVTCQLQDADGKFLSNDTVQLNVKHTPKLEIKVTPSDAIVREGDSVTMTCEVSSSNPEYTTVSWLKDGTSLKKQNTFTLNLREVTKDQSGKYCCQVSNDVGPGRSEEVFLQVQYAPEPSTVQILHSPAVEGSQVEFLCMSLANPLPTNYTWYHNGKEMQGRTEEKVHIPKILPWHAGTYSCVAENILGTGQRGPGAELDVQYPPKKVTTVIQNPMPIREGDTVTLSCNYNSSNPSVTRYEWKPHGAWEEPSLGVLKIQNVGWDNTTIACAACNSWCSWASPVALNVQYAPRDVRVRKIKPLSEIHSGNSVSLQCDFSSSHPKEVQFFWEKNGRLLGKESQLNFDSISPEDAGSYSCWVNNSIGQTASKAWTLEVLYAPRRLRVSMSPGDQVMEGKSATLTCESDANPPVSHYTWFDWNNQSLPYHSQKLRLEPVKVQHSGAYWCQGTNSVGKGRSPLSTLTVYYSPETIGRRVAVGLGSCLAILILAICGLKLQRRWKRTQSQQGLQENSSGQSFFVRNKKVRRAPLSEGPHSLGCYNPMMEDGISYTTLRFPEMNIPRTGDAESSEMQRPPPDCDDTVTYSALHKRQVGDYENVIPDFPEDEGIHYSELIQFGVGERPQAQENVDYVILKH
Outline: (§1)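 Using a Biacore 8K, compounds were tested against biotinylated CD22 captured after sialidase treatment. The running buffer held 1% DMSO, corrected with a 0.5–2% DMSO series. Affinity was derived by steady-state analysis.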

[2] = molecular target: cynomolgus Siglec-2/CD22 (Macaca fascicularis, UniProt A0A2K5WCZ6); assay: biochemical; format: binding; settings: SPR, steady-state analysis; read-out: Affinity cyno CD22
cynomolgus Siglec-2/CD22, sequence (A0A2K5WCZ6 entry or part of it): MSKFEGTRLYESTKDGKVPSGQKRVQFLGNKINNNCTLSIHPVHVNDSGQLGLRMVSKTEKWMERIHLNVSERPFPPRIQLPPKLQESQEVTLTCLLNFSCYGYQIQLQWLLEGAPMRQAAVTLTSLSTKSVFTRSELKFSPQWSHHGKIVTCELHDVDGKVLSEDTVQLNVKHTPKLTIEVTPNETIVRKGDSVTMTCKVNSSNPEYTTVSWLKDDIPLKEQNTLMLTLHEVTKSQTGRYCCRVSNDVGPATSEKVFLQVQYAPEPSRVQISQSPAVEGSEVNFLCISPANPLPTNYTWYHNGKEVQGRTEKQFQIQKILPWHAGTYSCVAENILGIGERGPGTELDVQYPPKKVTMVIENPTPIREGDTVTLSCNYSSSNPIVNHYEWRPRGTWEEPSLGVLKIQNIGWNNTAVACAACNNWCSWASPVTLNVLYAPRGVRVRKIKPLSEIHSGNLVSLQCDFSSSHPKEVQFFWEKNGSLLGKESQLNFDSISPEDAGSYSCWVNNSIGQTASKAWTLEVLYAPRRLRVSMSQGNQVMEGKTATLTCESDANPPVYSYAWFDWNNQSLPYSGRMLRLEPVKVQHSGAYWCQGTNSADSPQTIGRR
Outline: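 SPR with desialylated (SialoExo, 4 h, 37° C.) cynomolgus CD22 amine-coupled to a CM5 chip. Running buffer 10 mM HEPES, 150 mM NaCl, 0.05% Tween-20, pH 7.5, 1% DMSO, with solvent correction; 120 s dissociation. Affinities from steady-state analysis.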

[3] = molecular target: T2, mouse Siglec-2-Fc-Avi (CD22) (Mus musculus, UniProt P35329); assay: SPR binding affinity to mouse CD22; settings: steady-state analysis
T2 construct: made in house
T2 sequence (P35329 22-708 limits assumed): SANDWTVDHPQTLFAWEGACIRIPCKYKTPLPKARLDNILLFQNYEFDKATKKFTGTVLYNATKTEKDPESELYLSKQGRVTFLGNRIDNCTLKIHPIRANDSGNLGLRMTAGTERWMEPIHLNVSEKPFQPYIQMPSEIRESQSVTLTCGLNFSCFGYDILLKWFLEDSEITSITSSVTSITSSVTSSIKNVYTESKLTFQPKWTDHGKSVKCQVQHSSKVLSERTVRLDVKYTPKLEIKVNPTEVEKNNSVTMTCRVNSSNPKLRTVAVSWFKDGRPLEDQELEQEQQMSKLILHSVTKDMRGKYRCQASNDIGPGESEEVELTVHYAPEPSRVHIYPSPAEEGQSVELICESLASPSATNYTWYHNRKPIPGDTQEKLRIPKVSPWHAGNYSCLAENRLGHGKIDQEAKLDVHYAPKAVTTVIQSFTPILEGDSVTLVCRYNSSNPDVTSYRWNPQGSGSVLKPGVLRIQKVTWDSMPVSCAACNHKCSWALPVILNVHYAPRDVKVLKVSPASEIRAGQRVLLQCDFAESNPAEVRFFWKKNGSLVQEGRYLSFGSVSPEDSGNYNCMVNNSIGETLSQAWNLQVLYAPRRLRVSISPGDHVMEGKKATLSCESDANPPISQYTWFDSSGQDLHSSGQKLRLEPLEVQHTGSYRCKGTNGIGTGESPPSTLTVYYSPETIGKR
Outline: as §1

Kd [1] [nM] | Kd [2] [nM] | Kd [3] [nM] | SMILES
< 1000 | < 1000 | 1000 to 10000 | O=C(O)CCCCCO[C@]1(C(=O)O)C[C@H](O)[C@@H](NC(=O)CO)[C@H]([C@H](O)[C@H](O)CNC(=O)Cc2ccc(Cl)cc2)O1 [Compound 121, (2R,4S,5R,6R)-2-((5-carboxypentyl)oxy)-6-((1R,2R)-3-(2-(4-chlorophenyl)acetamido)-1,2-dihydroxypropyl)-4-hydroxy-5-(2-hydroxyacetamido)tetrahydro-2H-pyran-2-carboxylic acid]
> 10000 | 1000 to 10000 | > 10000 | C#CCCOc1ccc(CO[C@]2(C(=O)O)C[C@H](O)[C@@H](NC(=O)CO)[C@H]([C@H](O)[C@H](O)CNC(=O)Cc3ccc(N4CCC(NC(C)=O)CC4)cc3)O2)cc1 [Compound 137, (2R,4S,5R,6R)-6-((1R,2R)-3-(2-(4-(4-acetamidopiperidin-1-yl)phenyl)acetamido)-1,2-dihydroxypropyl)-2-((4-(but-3-yn-1-yloxy)benzyl)oxy)-4-hydroxy-5-(2-hydroxyacetamido)tetrahydro-2H-pyran-2-carboxylic acid]
< 1000 | 1000 to 10000 | 1000 to 10000 | C#CCOc1ccc(CO[C@]2(C(=O)O)C[C@H](O)[C@@H](NC(=O)CO)[C@H]([C@H](O)[C@H](O)CNC(=O)Cc3ccc(F)cc3)O2)cc1 [Compound 166, (2R,4S,5R,6R)-6-((1R,2R)-3-(2-(4-fluorophenyl)acetamido)-1,2-dihydroxypropyl)-4-hydroxy-5-(2-hydroxyacetamido)-2-((4-(prop-2-yn-1-yloxy)benzyl)oxy)tetrahydro-2H-pyran-2-carboxylic acid]
< 1000 | < 1000 | < 1000 | C#CCCOc1ccc(CO[C@]2(C(=O)O)C[C@H](O)[C@@H](NC(=O)CO)[C@H]([C@H](O)[C@H](O)CNC(=O)Cc3ccc(-c4ccc(O)cc4)cc3)O2)cc1O [Compound 73, (2R,4S,5R,6R)-2-((4-(but-3-yn-1-yloxy)-3-hydroxybenzyl)oxy)-6-((1R,2R)-1,2-dihydroxy-3-(2-(4′-hydroxy-[1,1′-biphenyl]-4-yl)acetamido)propyl)-4-hydroxy-5-(2-hydroxyacetamido)tetrahydro-2H-pyran-2-carboxylic acid]
1000 to 10000 | > 10000 | 1000 to 10000 | C#CCOCCOCCO[C@]1(C(=O)O)C[C@H](O)[C@@H](NC(=O)CO)[C@H]([C@H](O)[C@H](O)CNC(=O)Cc2ccccc2O)O1 [Compound 151, (2R,4S,5R,6R)-6-((1R,2R)-1,2-dihydroxy-3-(2-(2-hydroxyphenyl)acetamido)propyl)-4-hydroxy-5-(2-hydroxyacetamido)-2-(2-(2-(prop-2-yn-1-yloxy)ethoxy)ethoxy)tetrahydro-2H-pyran-2-carboxylic acid]

Further lines, the compound ahead of its results:

SMILES | Kd [1] [nM] | Kd [2] [nM] | Kd [3] [nM]
C#CCCOc1ccc(CO[C@]2(C(=O)O)C[C@H](O)[C@@H](NC(=O)CO)[C@H]([C@H](O)[C@H](O)CNC(=O)Cc3cccc(-c4cccc(O)c4)c3)O2)cc1 [Compound 45, (2R,4S,5R,6R)-2-((4-(but-3-yn-1-yloxy)benzyl)oxy)-6-((1R,2R)-1,2-dihydroxy-3-(2-(3′-hydroxy-[1,1′-biphenyl]-3-yl)acetamido)propyl)-4-hydroxy-5-(2-hydroxyacetamido)tetrahydro-2H-pyran-2-carboxylic acid] | < 1000 | 1000 to 10000 | 1000 to 10000
C#CCOCCOCCO[C@]1(C(=O)O)C[C@H](O)[C@@H](NC(=O)C(F)F)[C@H]([C@H](O)[C@H](O)CNC(=O)Cc2ccc(-c3ccc(O)cc3)cc2)O1 [Compound 76, (2R,4S,5R,6R)-5-(2,2-difluoroacetamido)-6-((1R,2R)-1,2-dihydroxy-3-(2-(4′-hydroxy-[1,1′-biphenyl]-4-yl)acetamido)propyl)-4-hydroxy-2-(2-(2-(prop-2-yn-1-yloxy)ethoxy)ethoxy)tetrahydro-2H-pyran-2-carboxylic acid] | < 1000 | 1000 to 10000 | 1000 to 10000
O=C(O)CCCCCCO[C@]1(C(=O)O)C[C@H](O)[C@@H](NC(=O)CO)[C@H]([C@H](O)[C@H](O)CNC(=O)Cc2ccc(Cl)cc2)O1 [Compound 98, (2R,4S,5R,6R)-2-((6-carboxyhexyl)oxy)-6-((1R,2R)-3-(2-(4-chlorophenyl)acetamido)-1,2-dihydroxypropyl)-4-hydroxy-5-(2-hydroxyacetamido)tetrahydro-2H-pyran-2-carboxylic acid] | < 1000 | < 1000 | 1000 to 10000
C#CCOCCCCCCO[C@]1(C(=O)O)C[C@H](O)[C@@H](NC(=O)N(C)C)[C@H]([C@H](O)[C@H](O)CNC(=O)Cc2ccc(Cl)cc2)O1 [Compound 85, (2R,4S,5R,6R)-6-((1R,2R)-3-(2-(4-chlorophenyl)acetamido)-1,2-dihydroxypropyl)-5-(3,3-dimethylureido)-4-hydroxy-2-((6-(prop-2-yn-1-yloxy)hexyl)oxy)tetrahydro-2H-pyran-2-carboxylic acid] | < 1000 | < 1000 | 1000 to 10000
C#CCOCCCCCCO[C@]1(C(=O)O)C[C@H](O)[C@@H](NC(=O)C(=O)NC)[C@H]([C@H](O)[C@H](O)CNC(=O)Cc2ccc(Cl)cc2)O1 [Compound 189, (2R,4S,5R,6R)-6-((1R,2R)-3-(2-(4-chlorophenyl)acetamido)-1,2-dihydroxypropyl)-4-hydroxy-5-(2-(methylamino)-2-oxoacetamido)-2-((6-(prop-2-yn-1-yloxy)hexyl)oxy)tetrahydro-2H-pyran-2-carboxylic acid] | 1000 to 10000 | < 1000 | 1000 to 10000
C#CCCCCNC(=O)CCCCCCO[C@]1(C(=O)O)C[C@H](O)[C@@H](NC(=O)CO)[C@H]([C@H](O)[C@H](O)CNC(=O)Cc2ccc(Cl)cc2)O1 [Compound 96, (2R,4S,5R,6R)-6-((1R,2R)-3-(2-(4-chlorophenyl)acetamido)-1,2-dihydroxypropyl)-2-((7-(hex-5-yn-1-ylamino)-7-oxoheptyl)oxy)-4-hydroxy-5-(2-hydroxyacetamido)tetrahydro-2H-pyran-2-carboxylic acid] | < 1000 | < 1000 | < 1000
C#CCCOc1ccc(CO[C@]2(C(=O)O)C[C@H](O)[C@@H](NC(=O)CO)[C@H]([C@H](O)[C@H](O)CNC(=O)Cc3ccc4cn[nH]c4c3)O2)cc1 [Compound 10, (2R,4S,5R,6R)-6-((1R,2R)-3-(2-(1H-indazol-6-yl)acetamido)-1,2-dihydroxypropyl)-2-((4-(but-3-yn-1-yloxy)benzyl)oxy)-4-hydroxy-5-(2-hydroxyacetamido)tetrahydro-2H-pyran-2-carboxylic acid] | 1000 to 10000 | 1000 to 10000 | 1000 to 10000
O=C(O)CCCCCCCO[C@]1(C(=O)O)C[C@H](O)[C@@H](NC(=O)CO)[C@H]([C@H](O)[C@H](O)CNC(=O)Cc2ccc(Cl)cc2)O1 [Compound 97, (2R,4S,5R,6R)-2-((7-carboxyheptyl)oxy)-6-((1R,2R)-3-(2-(4-chlorophenyl)acetamido)-1,2-dihydroxypropyl)-4-hydroxy-5-(2-hydroxyacetamido)tetrahydro-2H-pyran-2-carboxylic acid] | < 1000 | < 1000 | < 1000
